# Results: PubChem BioAssay (NCI)
#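 GI50 marks 50% less growth. TGI: concentration producing complete growth inhibition.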
# Assays:
# Test in all cases: inhibition of tumour cell growth, NCI panel, 384-well format
# [1] = tested on: HOP-92 NSCLC
# [2] = tested on: LOX IMVI melanoma
# [3] = tested on: SNB-19 CNS
# [4] = tested on: A549 NSCLC
# [5] = tested on: OVCAR-5 ovarian
# [6] = tested on: PC-3 prostate
# [7] = tested on: T-47D breast
# [8] = tested on: K-562 leukemia
# [9] = tested on: SW-620 colon
# [10] = tested on: MDA-MB-231 breast
# [11] = tested on: OVCAR-8 ovarian
# [12] = tested on: SK-MEL-2 melanoma
# [13] = tested on: MALME-3M melanoma
# [14] = tested on: HCT-116 colon
# [15] = tested on: ACHN renal
# [16] = tested on: HCT-15 colon
# [17] = tested on: HCC-2998 colon
# [18] = tested on: SF-295 CNS
# [19] = tested on: TK-10 renal
# [20] = tested on: SF-539 CNS
# [21] = tested on: UACC-62 melanoma
# [22] = tested on: U251 glioblastoma
# [23] = tested on: SN12C renal
# [24] = tested on: MOLT-4 leukemia
# [25] = tested on: NCI-H23 lung
# [26] = tested on: KM12 colon
# [27] = tested on: RPMI-8226 leukemia
# [28] = tested on: CCRF-CEM leukemia
# [29] = tested on: HT29 colon
# [30] = tested on: IGROV1 ovarian
# [31] = tested on: SK-MEL-28 melanoma
# [32] = tested on: NCI-H226 lung
# [33] = tested on: CAKI-1 renal
# [34] = tested on: NCI/ADR-RES ovarian
# [35] = tested on: NCI-H460 NSCLC
# [36] = tested on: UACC-257 melanoma
# [37] = tested on: 786-0 renal
# [38] = tested on: A498 renal
# [39] = tested on: DU-145 prostate
# [40] = tested on: UO-31 renal
# [41] = tested on: NCI-H322M lung
# [42] = tested on: SK-OV-3 ovarian
# [43] = tested on: HOP-62 NSCLC
# [44] = tested on: COLO 205 colon
# [45] = tested on: HL-60(TB) leukemia
# [46] = tested on: OVCAR-3 ovarian
# [47] = tested on: MDA-MB-435 melanoma
# [48] = tested on: OVCAR-4 ovarian
# [49] = tested on: M14 melanoma
# [50] = tested on: SF-268 CNS
smiles,measurement,setting,value
CO[C@H]1C[C@@H]2CC[C@@H](C)[C@@](O)(O2)C(=O)C(=O)N2CCCC[C@H]2C(=O)O[C@H]([C@H](C)C[C@@H]2CC[C@@H](OP(C)(C)=O)[C@H](OC)C2)CC(=O)[C@H](C)/C=C(\C)[C@@H](O)[C@@H](OC)C(=O)[C@H](C)C[C@H](C)/C=C/C=C/C=C/1C,GI50,[1],12.5 µM
same,TGI,[1],25.5 µM
same,GI50,[2],17.5 µM
same,TGI,[2],31.4 µM
same,GI50,[3],13.5 µM
same,TGI,[3],26.9 µM
same,GI50,[4],< 0.01 µM
same,TGI,[4],39.9 µM
same,GI50,[5],15.3 µM
same,TGI,[5],29.8 µM
same,GI50,[6],1.06 µM
same,TGI,[6],21.3 µM
same,GI50,[7],< 0.01 µM
same,TGI,[7],25 µM
same,GI50,[8],11.2 µM
same,TGI,[8],23.4 µM
same,GI50,[9],14.9 µM
same,TGI,[9],28.6 µM
same,GI50,[10],12 µM
same,TGI,[10],24.4 µM
same,GI50,[11],11 µM
same,TGI,[11],23.2 µM
same,GI50,[12],11 µM
same,TGI,[12],23 µM
same,GI50,[13],< 0.01 µM
same,TGI,[13],21.2 µM
same,GI50,[14],12.4 µM
same,TGI,[14],25.2 µM
same,GI50,[15],12.4 µM
same,TGI,[15],25.2 µM
same,GI50,[16],11.4 µM
same,TGI,[16],23.9 µM
same,GI50,[17],12.3 µM
same,TGI,[17],24.9 µM
same,GI50,[18],< 0.01 µM
same,TGI,[18],16.6 µM
same,GI50,[19],11.6 µM
same,TGI,[19],28.6 µM
same,GI50,[20],< 0.01 µM
same,TGI,[20],20.7 µM
same,GI50,[21],7.86 µM
same,TGI,[21],21.6 µM
same,GI50,[22],4.92 µM
same,TGI,[22],21.3 µM
same,GI50,[23],14 µM
same,TGI,[23],27.2 µM
same,GI50,[24],< 0.01 µM
same,TGI,[24],11.7 µM
same,GI50,[25],19.5 µM
same,TGI,[25],35.2 µM
same,GI50,[26],13.4 µM
same,TGI,[26],26.6 µM
same,GI50,[27],< 0.01 µM
same,GI50,[28],0.0126 µM
same,TGI,[28],17 µM
same,GI50,[29],12.5 µM
same,TGI,[29],25.2 µM
same,GI50,[30],< 0.01 µM
same,TGI,[30],16 µM
same,GI50,[31],12.2 µM
same,TGI,[31],24.7 µM
same,GI50,[32],12.4 µM
same,TGI,[32],25.3 µM
same,GI50,[33],10.5 µM
same,TGI,[33],23.1 µM
same,GI50,[34],15.4 µM
same,TGI,[34],38.7 µM
same,GI50,[35],< 0.01 µM
same,TGI,[35],17.4 µM
same,GI50,[36],15.3 µM
same,TGI,[36],28.7 µM
same,GI50,[37],11.2 µM
same,TGI,[37],23.5 µM
same,GI50,[38],< 0.01 µM
same,TGI,[38],17.6 µM
same,GI50,[39],11.3 µM
same,TGI,[39],26.8 µM
same,GI50,[40],< 0.01 µM
same,TGI,[40],0.0198 µM
same,GI50,[41],< 0.01 µM
same,TGI,[41],25.3 µM
same,GI50,[42],< 0.01 µM
same,TGI,[42],20.2 µM
same,GI50,[43],0.491 µM
same,TGI,[43],21.7 µM
same,GI50,[44],13.5 µM
same,TGI,[44],26.5 µM
same,GI50,[45],15.3 µM
same,TGI,[45],28.7 µM
same,GI50,[46],11.2 µM
same,TGI,[46],23.4 µM
same,GI50,[47],14.2 µM
same,TGI,[47],27.9 µM
same,GI50,[48],12 µM
same,TGI,[48],25 µM
same,GI50,[49],10.4 µM
same,TGI,[49],22.2 µM
same,GI50,[50],12.5 µM
same,TGI,[50],25.3 µM
